This note sets out measurements from the OligoGym collection.

HELM strings list units from the 5' end as sugar, base in round brackets, then linkage (d deoxyribose, r ribose, m 2'-O-methyl, p phosphodiester). Strings are as the collection lists them; they lack the last nucleoside at the 3' end of the tested compound. [moe] = 2'-O-(2-methoxyethyl) (MOE); [sp] = phosphorothioate linkage; [m5C] = 5-methylcytosine

The series addresses LRRK2. Put plainly: mouse, dose not given. The following applies: ASO.
“RNA1{[moe](A)[sp].[moe](A)p.[moe](T)[sp].[moe](G)[sp].[moe](A)[sp].d(G)[sp].d(T)[sp].d(G)[sp].d([m5C])[sp].d(A)[sp].d(T)[sp].d(G)[sp].d(G)[sp].d([m5C])[sp].d(A)[sp].[moe](T)[sp].[moe]([m5C])p.[moe](A)[sp].[moe](A)}$$$$ (last 3' nucleoside missing)” returned a 3 h FOB score of 3 score 0-7. On to “RNA1{[moe]([m5C])[sp].[moe]([m5C])p.[moe](A)[sp].[moe]([m5C])[sp].[moe](A)[sp].d(A)[sp].d(A)[sp].d([m5C])[sp].d(T)[sp].d([m5C])[sp].d(A)[sp].d(T)[sp].d(G)[sp].d(G)[sp].d(A)[sp].[moe]([m5C])p.[moe](T)p.[moe](T)[sp].[moe]([m5C])}$$$$ (last 3' nucleoside missing)”, for which the 3 h FOB score was 5 score 0-7. Turning to “RNA1{[moe](A)[sp].[moe](T)p.[moe](T)[sp].[moe]([m5C])[sp].[moe](G)[sp].d(G)[sp].d(T)[sp].d(T)[sp].d(A)[sp].d(T)[sp].d(A)[sp].d(A)[sp].d(G)[sp].d(G)[sp].d([m5C])[sp].[moe](A)[sp].[moe]([m5C])p.[moe](A)[sp].[moe](G)}$$$$ (last 3' nucleoside missing)”, the 3 h FOB score was 5 score 0-7.

“RNA1{[moe](T)[sp].[moe](G)p.[moe](T)[sp].[moe]([m5C])[sp].[moe](A)[sp].d([m5C])[sp].d([m5C])[sp].d(T)[sp].d(T)[sp].d(T)[sp].d([m5C])[sp].d([m5C])[sp].d([m5C])[sp].d(A)[sp].d(A)[sp].[moe](T)[sp].[moe](G)p.[moe]([m5C])[sp].[moe](T)}$$$$ (last 3' nucleoside missing)” displayed a 3 h FOB score of 5 score 0-7. For the substance “RNA1{[moe]([m5C])[sp].[moe]([m5C])p.[moe](A)[sp].[moe]([m5C])[sp].[moe](A)[sp].d(A)[sp].d(A)[sp].d([m5C])[sp].d(T)[sp].d([m5C])[sp].d(A)[sp].d(T)[sp].d(G)[sp].d(G)[sp].d(A)[sp].[moe]([m5C])[sp].[moe](T)p.[moe](T)[sp].[moe]([m5C])}$$$$ (last 3' nucleoside missing)”, the 3 h FOB score turned out to be 7 score 0-7. Substance “RNA1{[moe](A)[sp].[moe](G)p.[moe](G)p.[moe]([m5C])p.[moe](A)[sp].d(T)[sp].d(T)[sp].d(T)[sp].d([m5C])[sp].d(A)[sp].d(T)[sp].d(A)[sp].d(T)[sp].d(A)[sp].d(G)[sp].[moe](T)p.[moe]([m5C])p.[moe](G)[sp].[moe](G)}$$$$ (last 3' nucleoside missing)” yielded a 3 h FOB score of 4 score 0-7. For “RNA1{[moe](A)[sp].[moe](T)p.[moe](G)[sp].[moe]([m5C])[sp].[moe](T)[sp].d(T)[sp].d(T)[sp].d([m5C])[sp].d(A)[sp].d(T)[sp].d(A)[sp].d(G)[sp].d([m5C])[sp].d(T)[sp].d(T)[sp].[moe]([m5C])[sp].[moe]([m5C])p.[moe](A)[sp].[moe]([m5C])}$$$$ (last 3' nucleoside missing)” the value was 2 score 0-7; for “RNA1{[moe](T)[sp].[moe](G)p.[moe]([m5C])p.[moe](T)p.[moe]([m5C])[sp].d(T)[sp].d([m5C])[sp].d(T)[sp].d(T)[sp].d(T)[sp].d([m5C])[sp].d(T)[sp].d([m5C])[sp].d(A)[sp].d([m5C])[sp].[moe](A)p.[moe](T)p.[moe](A)[sp].[moe]([m5C])}$$$$ (last 3' nucleoside missing)”, 0 score 0-7; for “RNA1{[moe](T)[sp].[moe]([m5C])p.[moe](A)p.[moe]([m5C])p.[moe]([m5C])[sp].d(A)[sp].d([m5C])[sp].d(A)[sp].d(A)[sp].d(A)[sp].d([m5C])[sp].d(T)[sp].d([m5C])[sp].d(A)[sp].d(T)[sp].[moe](G)p.[moe](G)p.[moe](A)[sp].[moe]([m5C])}$$$$ (last 3' nucleoside missing)”, 3 score 0-7. For “RNA1{[moe](T)[sp].[moe](G)p.[moe]([m5C])[sp].[moe](T)[sp].[moe](G)[sp].d([m5C])[sp].d(T)[sp].d([m5C])[sp].d(A)[sp].d(T)[sp].d(A)[sp].d(T)[sp].d([m5C])[sp].d(T)[sp].d(A)[sp].[moe](A)[sp].[moe](A)p.[moe](G)[sp].[moe](A)}$$$$ (last 3' nucleoside missing)”, the 3 h FOB score was determined as 0 score 0-7.

The substance “RNA1{[moe](A)[sp].[moe](A)p.[moe](A)[sp].[moe](T)[sp].[moe](G)[sp].d(A)[sp].d(G)[sp].d(T)[sp].d(G)[sp].d([m5C])[sp].d(A)[sp].d(T)[sp].d(G)[sp].d(G)[sp].d([m5C])[sp].[moe](A)[sp].[moe](T)p.[moe]([m5C])[sp].[moe](A)}$$$$ (last 3' nucleoside missing)” displayed a 3 h FOB score of 4 score 0-7. Substance “RNA1{[moe]([m5C])[sp].[moe](T)p.[moe]([m5C])p.[moe](A)p.[moe](T)[sp].d(A)[sp].d(T)[sp].d([m5C])[sp].d(T)[sp].d(A)[sp].d(A)[sp].d(A)[sp].d(G)[sp].d(A)[sp].d([m5C])[sp].[moe]([m5C])p.[moe](G)p.[moe]([m5C])[sp].[moe](A)}$$$$ (last 3' nucleoside missing)” registered a 3 h FOB score of 1 score 0-7. “RNA1{[moe](G)[sp].[moe]([m5C])p.[moe](A)[sp].[moe](A)[sp].[moe](G)[sp].d(T)[sp].d([m5C])[sp].d([m5C])[sp].d(A)[sp].d(A)[sp].d(A)[sp].d(T)[sp].d(G)[sp].d(T)[sp].d(G)[sp].[moe](T)[sp].[moe]([m5C])p.[moe](A)[sp].[moe](A)}$$$$ (last 3' nucleoside missing)” had a 3 h FOB score of 6 score 0-7. “RNA1{[moe]([m5C])[sp].[moe](T)p.[moe](T)p.[moe](T)p.[moe]([m5C])[sp].d(A)[sp].d([m5C])[sp].d(T)[sp].d([m5C])[sp].d(A)[sp].d(T)[sp].d(A)[sp].d(G)[sp].d(G)[sp].d(G)[sp].[moe](A)p.[moe](A)p.[moe](T)[sp].[moe](G)}$$$$ (last 3' nucleoside missing)”: the 3 h FOB score was determined as 2.5 score 0-7.

In the case of “RNA1{[moe](G)[sp].[moe]([m5C])p.[moe]([m5C])[sp].[moe](A)[sp].[moe]([m5C])[sp].d(T)[sp].d(T)[sp].d(T)[sp].d([m5C])[sp].d(A)[sp].d(G)[sp].d([m5C])[sp].d([m5C])[sp].d(A)[sp].d([m5C])[sp].[moe](T)[sp].[moe](T)p.[moe]([m5C])[sp].[moe](A)}$$$$ (last 3' nucleoside missing)”, the 3 h FOB score is 7 score 0-7. “RNA1{[moe](A)[sp].[moe]([m5C])p.[moe](G)[sp].[moe]([m5C])[sp].[moe](A)[sp].d([m5C])[sp].d(T)[sp].d(T)[sp].d(A)[sp].d(A)[sp].d([m5C])[sp].d(A)[sp].d(A)[sp].d(T)[sp].d(A)[sp].[moe](T)[sp].[moe]([m5C])p.[moe](A)[sp].[moe](T)}$$$$ (last 3' nucleoside missing)” had a 3 h FOB score of 1 score 0-7. Substance “RNA1{[moe](A)[sp].[moe](T)p.[moe](G)p.[moe]([m5C])p.[moe](A)[sp].d(G)[sp].d(T)[sp].d(T)[sp].d(T)[sp].d([m5C])[sp].d(T)[sp].d([m5C])[sp].d(T)[sp].d(A)[sp].d([m5C])[sp].[moe](T)p.[moe]([m5C])p.[moe](T)[sp].[moe](A)}$$$$ (last 3' nucleoside missing)” yielded a 3 h FOB score of 0 score 0-7.
